Measurements from ChEMBL document CHEMBL1201862, “PubChem BioAssay data set” (2004).
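Dose response: 5 concentrations. Exposure: 48 h. Format: 96-well plates. Endpoint: linear interpolation; highest concentration if not reached. GI50: concentration for 50% inhibition of growth.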 The source made the active and inactive calls. No stated cut-off is given here; in the data, active = GI50 up to about 1.1 µM and inactive = higher.

Experiments:
Assay in all cases: NCI-60 cell line screen, 48 h
SNB-78 = system: SNB-78
DLD-1 = system: DLD-1
M19-MEL = system: M19-MEL
XF498 = system: XF498
DMS-114 = system: DMS-114
786-0 = system: 786-0
RXF 631 = system: RXF 631
LXFL 529 = system: LXFL 529
KM-20L2 = system: KM-20L2

Compound	GI50 (SNB-78)	GI50 (DLD-1)	GI50 (M19-MEL)	GI50 (XF498)	GI50 (DMS-114)	GI50 (786-0)	GI50 (RXF 631)	GI50 (LXFL 529)	GI50 (KM-20L2)
C#CCn1c(=O)c(C#N)c(O)c2cc3ccccc3nc21	> 100 µM (inactive)	> 100 µM (inactive)	> 100 µM (inactive)	> 100 µM (inactive)	> 100 µM (inactive)				
COc1c2c(c(O)c3c4c(c(C)cc13)C1OC3(C(OC)OC5CC(C)(O)C(OC6CC(C)(O)C(O)C(C)O6)C(C)O5)OC1C(OC)(O4)C31CO1)C(=O)C(O)CC2OC1CC(C)(O)C(OC(C)=O)C(C)O1 (stereo not given)	< 0.01 µM (active)	0.01 µM (active)	< 0.01 µM (active)	< 0.01 µM (active)	< 0.01 µM (active)	< 0.01 µM (active)	< 0.01 µM (active)	< 0.01 µM (active)	< 0.01 µM (active)
CSC(=N)NNC(=O)CCC(=O)Nc1ccccc1C(F)(F)F	> 61.5 µM (inactive)	> 100 µM (inactive)	> 100 µM (inactive)		> 100 µM (inactive)	> 100 µM (inactive)		> 100 µM (inactive)	> 44.7 µM (inactive)
C(/C=N/c1ccccc1)=C(/Nc1ccccc1)C12CC3CC(CC(C3)C1)C2						15 µM (inactive)			
CCN(CC)CC(=N)N(CC)c1ccccc1	> 100 µM (inactive)	> 100 µM (inactive)	> 100 µM (inactive)	> 100 µM (inactive)	> 100 µM (inactive)	> 100 µM (inactive)		> 100 µM (inactive)	> 100 µM (inactive)
O=Cc1ccc(CCl)cc1	16.5 µM (inactive)	16.1 µM (inactive)	17.3 µM (inactive)	20 µM (inactive)	6.93 µM (inactive)		3.16 µM (inactive)	16.2 µM (inactive)	23.6 µM (inactive)
COc1ccc(/C=C/c2cnccn2)cc1OC						> 10 µM (inactive)			
NC(=O)c1coc(C2OC(CO)C(O)C2O)n1 (stereo not given)	> 100 µM (inactive)		> 100 µM (inactive)		> 100 µM (inactive)	> 100 µM (inactive)		> 100 µM (inactive)	> 100 µM (inactive)
O=C(NC1C(O)C(O)C(CO)OC1n1cc(F)c(=O)[nH]c1=O)OCc1ccccc1 (stereo not given)	> 100 µM (inactive)	> 100 µM (inactive)			> 100 µM (inactive)		> 100 µM (inactive)	> 100 µM (inactive)	> 100 µM (inactive)
CCCCC(NC(=O)CC)C(=O)O (stereo not given)	> 100 µM (inactive)	> 100 µM (inactive)	> 100 µM (inactive)	> 100 µM (inactive)	> 100 µM (inactive)				> 100 µM (inactive)
COc1cc(C2c3cc4c(cc3OC(N3CCCCC3)C2C)OCO4)cc(OC)c1OC (stereo not given)						3.42 µM (inactive)			
CC1CCC(O)/C=C/C(=O)OC(C)C(O)/C=C/C(=O)O1 (stereo not given)						> 92.9 µM (inactive)			
COC(=O)C1OC(Oc2cc(O)c3c(=O)cc(-c4ccc(O)cc4)oc3c2)C(O)C(O)C1O (stereo not given)	> 100 µM (inactive)	> 100 µM (inactive)	> 100 µM (inactive)	> 100 µM (inactive)	> 100 µM (inactive)				> 100 µM (inactive)
O=C(O)C(C(=O)O)P(=S)(S)c1ccccc1 (stereo not given)	> 100 µM (inactive)	> 100 µM (inactive)	> 100 µM (inactive)	> 100 µM (inactive)	> 100 µM (inactive)	> 100 µM (inactive)	> 100 µM (inactive)	> 100 µM (inactive)	> 100 µM (inactive)
NCCCCN(CCCN)Cc1ccccc1						> 100 µM (inactive)			
Cc1c2cc[n+](C)cc2c(C)c2c1[nH]c1ccc(O)cc12 [ELLIPTINIUM ACETATE]	61.9 µM (inactive)	57.7 µM (inactive)	4.7 µM (inactive)		5.97 µM (inactive)				> 100 µM (inactive)
